{"source": "patent US10758500B2", "about": "“Treating androgen deprivation therapy induced hot flashes and bone loss in men using cis-clomiphene” (ASPEN PARK PHARMACEUTICALS, INC., priority 2014, dated 2020)", "test_system": "Men who have advance prostate cancer on ADT", "assay": "Effect of cis-clomiphene on bone turnover markers and BMD (Example 2)", "assay_type": "in vivo, human", "details": "50 mg/d for 6 months, Day 180 compared with baseline", "method": "Men who have advance prostate cancer on ADT are treated with 50 mg/d of substantially cis-clomiphene for 6 months. At Day 180, baseline bone turnover markers like serum bone specific alkaline phosphatase and are compared to current values as well as BMD by DEXA.\nBone analysis methodology may be carried out as described in U.S. Patent Publication No. 2004/0214898, the pertinent contents of which are incorporated herein by reference.", "data": [{"smiles": "CCN(CC)CCOc1ccc(/C(=C(/Cl)c2ccccc2)c2ccccc2)cc1", "note": "[cis-clomiphene]", "values": [{"measurement": "effects on bone: bone turnover markers (serum bone specific alkaline phosphatase) and BMD by DEXA", "value": "estrogenic effects on bone favorably affecting bone turnover markers and BMD"}]}]}
